The values below are quoted from earlier work in patent US8097726B2, “Huperzine a compound for treatment of alzheimer's disease” (priority 2006, dated 2012).

The conditions of data set [1]: administered orally at 0.2 mg twice a day for 8 weeks; AD patients.
The conditions of data set [2]: rapidly eliminated from the kidneys.

In the case of `C/C=C1\[C@H]2C=C(C)C[C@]1(N)c1ccc(=O)[nH]c1C2` [huperzine A], the “patients with significant improvement in memory, cognition and behavior” value in data set [1] is given as 58%. The half-life in plasma in data set [2] was 4 to 5 h.
